# Literature values as cited in patent US20240100117A1, “NUTRITION-BASED METHOD FOR MANAGING ANIMAL BEHAVIOR” (Morgenstern & Associates, LLC, priority 2022, published 2024).
# Legend:
# [1] = general reference values; at room temperature
# [2] = system: conversion of 5-HTP to serotonin; conditions: supplementation, primate animal models
SMILES,viscosity [1],conversion of 5-HTP to serotonin [2]
OCC(O)CO [glycerin],about 950 cP,
O [water],about 1 cP,
"Cc1ncc(CO)c(CO)c1O [vitamin B6, pyridoxine]",,increased the conversion of 5-HTP to serotonin
